The target of test [1] is T1, STING (Homo sapiens, UniProt Q86WV6). The test is described as follows: Western Blot analysis for S1 STING ligand antagonism in primary human skin fibroblasts. It is filed as cell-based. Also noted: host or cells: HFF-1 human foreskin fibroblasts. The settings on record: 5 µM; 2 h or 1 h before, simultaneously with, or 15 minutes after 0.3 µM diABZI. On the procedure: To assess whether S1 STING ligands inhibit STING activation, primary human skin fibroblasts (Figure 5) or HFF-1 cells (Figure 6) were treated with various compounds which comprise only an S1 ligand domain and a Linker domain before undergoing Western Blot analysis as described below. Compounds A9, A11, A26 and A30 used in the following experiments share a common S1 ligand, which is also shared by Example compounds 1, 3, 5-29, 33-38.
T1 sequence (Q86WV6 whole entry, the tested form may be a part): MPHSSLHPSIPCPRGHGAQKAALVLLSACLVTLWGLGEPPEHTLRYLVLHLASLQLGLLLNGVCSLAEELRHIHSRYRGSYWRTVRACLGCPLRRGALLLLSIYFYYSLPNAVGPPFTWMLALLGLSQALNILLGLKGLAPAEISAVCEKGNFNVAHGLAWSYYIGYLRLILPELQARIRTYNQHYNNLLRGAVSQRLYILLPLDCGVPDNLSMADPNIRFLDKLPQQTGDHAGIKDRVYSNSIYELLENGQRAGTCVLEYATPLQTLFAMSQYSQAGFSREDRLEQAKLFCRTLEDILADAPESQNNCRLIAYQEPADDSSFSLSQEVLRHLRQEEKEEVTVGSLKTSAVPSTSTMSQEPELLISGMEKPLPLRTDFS
Cells were incubated with A9 or A11 for 1 or 2 hours before addition of diABZI c3, treated with test compound and diABZI c3 simultaneously, or treated with A9 or A11 after 15 minutes incubation with diABZI c3. As a control, cells were also treated with diABZI c3 alone.
(Immunoblotting shows a protein as a band on a membrane.)

Test [2] has as its target T1, STING. The test is described as follows: Western Blot analysis of inhibition of STING activation in HFF-1 cells. It is filed as cell-based. Set-up: host or cells: HFF-1 human foreskin fibroblasts. As to conditions: for STING, TBK1 and IRF1 phosphorylation: 2 h or 5 h. On the procedure:
To assess whether S1 STING ligands inhibit STING activation, primary human skin fibroblasts (Figure 5) or HFF-1 cells (Figure 6) were treated with various compounds which comprise only an S1 ligand domain and a Linker domain before undergoing Western Blot analysis as described below.
The cells were lysed and analysed on WB. […] The WB membrane was probed for p-STING, STING, p-IRF3, p-TBK1, and Vinculin.

In test [3] the target is T1, STING. The test can be described thus: Western Blot analysis for STING degradation in H596 cells. It is filed as cell-based. As to conditions: 24h; reference protein beta-actin. On the procedure:
(§1) For cell lysing for Western Blot analysis cell culture plates were brought to ice, supernatant was removed by aspiration and cells washed 2x in ice-cold DPBS. Cells were lysed in 65 µL of RIPA buffer supplemented with cOmplete ULTRA Tablets protease inhibitor cocktail, PIERCE Phosphatase inhibitor mini tablet, Benzonase and 10mM NaF for 20 min on ice. Lysates were collected, cleared by centrifugation (13000xg for 10 min at 4°C). Samples were either analysed directly or stored at -80°C until analysis.
(§2) For Western Blotting, total protein concentration in each lysate was determined using PIERCE Gold BCA Assay kit according to manufactures protocol. 6 µg of total protein was mixed with 2x Laemmli buffer containing DTT, boiled for 5 min at 95°C, cooled on ice and loaded into each well of a 4-20% Criterion TGX gel. Proteins were separated by electrophoresis, by running for 1h at 150V. After separation proteins were blotted onto a PVDF membrane by semi-dry transfer using Trans-Blot turbo system at pre-defined BioRad MIDI protocol; 25V, 1A (fixed) for 30 min. Membranes were blocked for 1h in 5% skim milk in TBS-T20 on a rocker at room temperature followed by washing and exposure to primary antibodies against human STING 1:1000 (Cell Signalling, #13647) or loading controls Vinculin 1:1000 (Cell Signalling, #13901) or beta-Actin 1:10000 (Sigma, A5441) all diluted in 5% BSA in TBS-T20. Membranes were probed over night at 4°C on a rocker. Membranes were washed 3x in TBS-T20 followed by exposure to secondary HRP-conjugated anti-rabbit antibody or HRP-conjugated anti-mouse antibody diluted 1:10000 in 5% skim milk in TBS-T20 as appropriate. Membranes were incubated for 1h at room temperature on a rocker, then washed 3x in TBS-T20.
(§3) For generating DC50 values, the intensity of individual bands was measured using imaged and expression levels were calculated as a ratio of STING intensities vs. Reference protein intensities and normalized to DMSO control. The normalized ratios were plotted on a XY curve in GraphPad Prism where DC50 was estimated using a 4-parameter non-linear regression fitting curve.
To assess STING degradation in H596 cells (ATCC, HTB-178) cells were seeded at a density of 100.000 cells/well in 24-well Nunclon Delta surface treated culture plate in RPMI-1640 growth medium (supplemented with 10% FBS, 1% Pen-strep). Cells were incubated over-night at 37°C 5% CO2 to allow adhesion. Next day growth medium was renewed and a 5x concentration of test compounds (2.5% DMSO) diluted in growth medium were added to the appropriate well. Final DMSO concentration was 0.5%. Cell culture plates were returned to the incubator for additional 24h. Final test compound concentrations were 0.22 µM, 0.67 µM, 2 µM and 6 µM.
For cell lysis, western blotting and data analysis, the methods described above for HFF-1 cells were applied.

The target of test [4] is T2, C-terminal domain (CTD) of human STING (Homo sapiens, UniProt Q86WV6). The test can be described thus: STING binding FP assay III. Set-up: recombinant human STING protein (155-379). The settings on record: 10 nM STING (FP assay III according to the text); read-out: STING binding FP assay II, IC50. On the procedure:
(§4) The interaction between molecules and the C-terminal domain (CTD) of human STING was evaluated using a competition binding assay. In this assay, recombinant human STING protein (155-379) and a STING binding fluorescent probe were employed. Upon binding of the probe to STING, the rotation of the fluorescent probe is slowed due to the larger molecular size of the protein-bound complex. As a result, emitted light retains its plane of polarization, leading to an increase in fluorescence polarization. Molecules competing for the probe binding site displace the probe, which leads to rapid randomization of the polarization plane of the emitted light and a subsequent decrease in measured fluorescence polarization signal. Change in polarization was measured, allowing a comparative evaluation of the binding affinities of different compounds to the target protein.
(§5) The assay was performed in 96-well plates (ThermoFisher, cat.# 237108) containing 100µl : 10 µL test compound in 10% DMSO and buffer A (150 mM NaCl, 50 mM HEPES pH 7.5, 1 mM DTT) + 90 µL prepared master mix solution of: 4 nM fluorescein-labelled STING ligand (Probe 1; synthesis described above) in buffer A + 0.055% Tween-20 (v/v) and 35 nM STING in buffer A. Post mixing, plates were agitated at 600rpm and incubated for 20 min at room temperature. Subsequent measurements of the fluorescence polarization signal were made on a BioTek Synergy-H1 plate reader, using a polarization filter; Exc: 485/20 nm, Em: […]) with a gain-setting of 75. IC50 values were determined using a standard non-linear regression four-parameter curve fit in Graphpad Prism.
The procedure for STING binding FP assay III is the same as described for STING binding FP assay I, except for a lower STING concentration. In STING binding FP assay III, a concentration of 10 nM STING in buffer A was used.

The target in test [5] is T1, STING. The test can be described thus: Western Blot analysis for STING degradation (DC50) in HFF-1 cells. It is filed as cell-based. Set-up: host or cells: HFF-1 human foreskin fibroblasts. The settings on record: 24h. On the procedure:
To assess STING degradation in human foreskin fibroblasts HFF-1 cells (ATCC, SCRC-1041) cells were seeded at a density of 60.000 cells/well in 24-well Nunclon Delta surface treated culture plate in DMEM growth medium (supplemented with 10% FBS, 1% Pen-strep). Cells were incubated over-night at 37°C 5% CO2 to allow adhesion. Next day growth medium was renewed and a 5x concentration of test compounds (2.5% DMSO) diluted in growth medium were added to the appropriate well. The final DMSO concentration were 0.5%. Cell culture plates were returned to the incubator for additional 24h.
as §1, §2, §3

Test [6] has as its target T2, C-terminal domain (CTD) of human STING. The test is described as follows: STING binding FP assay II. Also noted: recombinant human STING protein (155-379). The settings on record: 7 nM STING. On the procedure: as §4, §5
The procedure for STING binding FP assay II is the same as described for STING binding FP assay I, except for a lower STING concentration. In STING binding FP assay II, a concentration of 7 nM STING in buffer A was used.

The target of test [7] is T1, STING. The test is described as follows: Western Blot analysis of STING phosphorylation in human fibroblast cells (STING agonism). It is filed as cell-based. Set-up: host or cells: HFF-1 human foreskin fibroblasts. The settings on record: 7.2µM-3.6nM; 24h. On the procedure: Human fibroblast were treated with a titration of E22, E9, E14 and E16 (7.2µM-3.6nM) for 24h prior to cell lysis and subsequently total STING, pSTING and Vinculin were assessed by western blot using rabbit anti-STING (1:1000), anti-pSTING (1:1000), anti-Vinculin (1:1000) and 2nd anti-rabbit-HRP (1:10.000) or anti-mouse-HRP (1:7500). Proteins were visualized using ImageQuant800. Control cells included untreated cells and cells treated with 300nM diABZI C3.

Experimental findings from patent EP4663632A1, “COMPOUNDS USEFUL FOR THE MODULATION OF THE ACTIVITY OF STING” (Sulis Therapeutics ApS, priority 2024, dated 2025) are described below.

T2 sequence (Q86WV6 155-379): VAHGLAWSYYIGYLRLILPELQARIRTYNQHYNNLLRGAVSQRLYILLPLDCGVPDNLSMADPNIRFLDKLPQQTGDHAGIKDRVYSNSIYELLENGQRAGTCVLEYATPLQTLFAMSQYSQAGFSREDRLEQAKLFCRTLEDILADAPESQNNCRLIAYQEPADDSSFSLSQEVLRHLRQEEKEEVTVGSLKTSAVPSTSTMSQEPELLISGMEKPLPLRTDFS

As for `CCn1nc(C)cc1C(=O)N=c1n(C)c2cc(C(N)=O)ccc2n1CCC(CCn1c(=NC(=O)c2cc(C)nn2CC)n(C)c2cc(C(N)=O)ccc21)OCC(=O)N1CCC[C@H]1c1cccc(OC)c1` (stereo partly drawn) [Example A11, 1-(3-{2-[(S)-2-(3-Methoxyphenyl)-1-pyrrolidinyl]-2-oxoethoxy}-5-{5-carbamoyl-2-[(1-ethyl-3-methyl-5-pyrazolyl)carbonylimino]-3-methyl-2,3-dihydro-1H-1,3-benzimidazol-1-yl}pentyl)-2-[(1-ethyl-3-methyl-5-pyrazolyl)carbonylimino]-3-methyl-2,3-dihydro-1H-1,3-benzimidazole-5-carboxamide], at STING [1], the LC3B lipidation result is given as “reduced LC3B lipidation”, the “P-STING intensity (activation of STING)” value is “reduced intensity of P-STING” and the P-TBK1 intensity entry was “reduced P-TBK1 intensity”. For the same molecule, the “STING, TBK1 and IRF1 phosphorylation” value on STING [2] (5 µM for 15 min prior to 300 nM diABZI) is given as “lower compared to cells treated with diABZI c3 alone”. In addition, on STING [2] (5 µM for 15 min prior to 8 µg/mL cGAMP), the “STING, TBK1 and IRF1 phosphorylation” value is “lower compared to cells treated with cGAMP alone”. Besides, at STING [2] (compound as single agent, no activation), the “phosphorylation of STING, IRF1 or TBK1 (agonism)” value was “no phosphorylation of STING, IRF1 or TBK1 was observed”.
As a reminder, the DC50 is the midpoint of the concentration-degradation curve. Low values mean a more potent degrader, high ones a less potent degrader. As a reminder, the IC50 is the concentration that gives 50% inhibition. `CCn1nc(C)cc1C(=O)N=c1n(C)c2cc(C(N)=O)ccc2n1CCC(CCn1c(=NC(=O)c2cc(C)nn2CC)n(C)c2cc(C(N)=O)ccc21)OCC(=O)NCCOCCOCCOCCOCCC(=O)N(C)CCOCCOCCOCCOCCC(=O)N[C@H](C(=O)N1C[C@H](O)C[C@H]1C(=O)N[C@@H](C)c1ccc(-c2scnc2C)cc1)C(C)(C)C` (stereo partly drawn) [Example 27]: at STING [3], the DC50 is under 200 nM. Further, the IC50 in test [4] came out at 4.5 nM.
`CCn1nc(C)cc1C(=O)N=c1n(C)c2cc(C(N)=O)ccc2n1CCC(CCn1c(=NC(=O)c2cc(C)nn2CC)n(C)c2cc(C(N)=O)ccc21)OCC(=O)NCCOCCOCCOCCOCCC(=O)NCCOCCOCCNc1cccc2c1C(=O)N(C1CCC(=O)NC1=O)C2=O` (stereo not drawn) [Example 23, N-[2-(2-{2-[2-(2,6-Dioxo-3-piperidyl)-1,3-dioxo-4-isoindolinylamino]ethoxy}ethoxy)ethyl]15-{[(3-{5-carbamoyl-2-[(1-ethyl-3-methyl-5-pyrazolyl)carbonylimino]-3-methyl-2,3-dihydro-1H-1,3-benzimidazol-1-yl}-1-(2-{5-carbamoyl-2-[(1-ethyl-3-methyl-5-pyrazolyl)carbonylimino]-3-methyl-2,3-dihydro-1H-1,3-benzimidazol-1-yl}ethyl)propoxy)methyl]carbonylamino}-4,7,10,13-tetraoxapentadecanamide]: in test [4], the IC50 stood at 2.9 nM. The molecule further gave a 50% degradation concentration (DC50) on STING [5] (reference protein beta-actin) of 200 to 1000 nM.
In the case of `CCn1nc(C)cc1C(=O)N=c1n(C)c2cc(C(N)=O)ccc2n1CCC(CCn1c(=NC(=O)c2cc(C)nn2CC)n(C)c2cc(C(N)=O)ccc21)OCC(=O)NCCOCCOCCOCCOCCOc1cccc(C(=O)c2csc([C@@H]3CCCN3C(=O)[C@@H](NC(=O)[C@H](C)NC)C3CCCCC3)n2)c1` (stereo partly drawn) [Example 9], in test [6], the IC50 came out at 8.4 nM. Also, the “STING phosphorylation (pSTING)” value on STING [7] was “no STING phosphorylation was observed”.
In the case of `CCn1nc(C)cc1C(=O)N=c1n(C)c2cc(C(N)=O)ccc2n1CCC(CCn1c(=NC(=O)c2cc(C)nn2CC)n(C)c2cc(C(N)=O)ccc21)OCC(=O)NCCOCCOCCOCCOc1cccc(C(=O)c2csc([C@@H]3CCCN3C(=O)[C@@H](NC(=O)[C@H](C)NC)C3CCCCC3)n2)c1` (stereo partly drawn) [Example 22], at STING [7], the “STING phosphorylation (pSTING)” value is reported as “no STING phosphorylation was observed”.
As to `CCn1nc(C)cc1C(=O)N=c1n(C)c2cc(C(N)=O)ccc2n1CCC(CCn1c(=NC(=O)c2cc(C)nn2CC)n(C)c2cc(C(N)=O)ccc21)OCC(=O)NCCOCCOCCOCCOCCC(=O)NCCOCCOCC(=O)N[C@H]1C[C@@H](C(=O)N[C@@H]2CCCc3ccccc32)N(C(=O)[C@@H](NC(=O)[C@H](C)NC)C2CCCCC2)C1` (stereo partly drawn) [Example 26], the 50% inhibitory concentration (IC50) in test [4] amounted to 4.4 nM. The 50% degradation concentration (DC50) on STING [5] (reference protein vinculin) is under 200 nM.
